Measurements reported in the kinase profiling compilation of Christmann-Franck et al. (2016).

Experiments:
Assay in all cases: radiometric filter-binding kinase assay, Kinase HotSpot
Conditions in all cases: compound 0.5 µM; ATP 10 µM
SYK (human) = SYK (human) (UniProt P43405)
MAP3K8 (human) = MAP3K8 (human) (UniProt P41279)
PIM3 (human) = PIM3 (human) (UniProt Q86V86)
MAP4K2 (human) = MAP4K2 (human) (UniProt Q12851)
PRKCH (human) = PRKCH (human) (UniProt P24723)
MAPK14 (human) = MAPK14 (human) (UniProt Q16539)
RIPK2 (human) = RIPK2 (human) (UniProt O43353)
FLT3 (human) = FLT3 (human) (UniProt P36888)
FLT3 (human), sequence (P36888 whole entry, looked up): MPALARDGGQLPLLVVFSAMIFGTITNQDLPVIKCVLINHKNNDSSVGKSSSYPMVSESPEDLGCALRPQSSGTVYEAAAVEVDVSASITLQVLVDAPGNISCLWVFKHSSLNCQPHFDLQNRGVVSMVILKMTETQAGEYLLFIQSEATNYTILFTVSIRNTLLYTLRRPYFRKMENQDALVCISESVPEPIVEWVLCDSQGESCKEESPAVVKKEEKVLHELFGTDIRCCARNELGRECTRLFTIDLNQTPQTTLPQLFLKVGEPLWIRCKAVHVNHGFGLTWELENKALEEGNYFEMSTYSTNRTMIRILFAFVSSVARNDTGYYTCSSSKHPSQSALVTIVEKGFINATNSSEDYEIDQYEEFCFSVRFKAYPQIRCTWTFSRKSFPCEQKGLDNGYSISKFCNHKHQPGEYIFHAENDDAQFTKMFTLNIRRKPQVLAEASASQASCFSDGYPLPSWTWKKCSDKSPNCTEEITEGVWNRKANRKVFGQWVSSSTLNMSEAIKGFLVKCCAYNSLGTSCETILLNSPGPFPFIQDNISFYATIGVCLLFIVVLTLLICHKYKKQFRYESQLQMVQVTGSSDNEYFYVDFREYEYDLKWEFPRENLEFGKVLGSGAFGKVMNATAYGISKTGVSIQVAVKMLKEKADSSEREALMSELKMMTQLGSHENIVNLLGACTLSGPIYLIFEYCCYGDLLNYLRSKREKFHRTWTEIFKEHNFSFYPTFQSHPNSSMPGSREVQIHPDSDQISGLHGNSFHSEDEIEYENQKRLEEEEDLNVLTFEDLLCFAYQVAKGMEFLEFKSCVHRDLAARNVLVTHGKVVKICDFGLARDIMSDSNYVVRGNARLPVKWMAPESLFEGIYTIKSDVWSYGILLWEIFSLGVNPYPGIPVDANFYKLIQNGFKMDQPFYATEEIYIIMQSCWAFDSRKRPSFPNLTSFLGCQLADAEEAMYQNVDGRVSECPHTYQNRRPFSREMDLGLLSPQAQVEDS

PRKCG (human) = PRKCG (human) (UniProt P05129)
CDK2 CCNA2 (human) = CDK2 CCNA2 (human) (UniProt P24941+P20248)
MAP3K2 (human) = MAP3K2 (human) (UniProt Q9Y2U5)
CAMKK1 (human) = CAMKK1 (human) (UniProt Q8N5S9)
CAMKK1 (human), sequence (Q8N5S9 whole entry, looked up): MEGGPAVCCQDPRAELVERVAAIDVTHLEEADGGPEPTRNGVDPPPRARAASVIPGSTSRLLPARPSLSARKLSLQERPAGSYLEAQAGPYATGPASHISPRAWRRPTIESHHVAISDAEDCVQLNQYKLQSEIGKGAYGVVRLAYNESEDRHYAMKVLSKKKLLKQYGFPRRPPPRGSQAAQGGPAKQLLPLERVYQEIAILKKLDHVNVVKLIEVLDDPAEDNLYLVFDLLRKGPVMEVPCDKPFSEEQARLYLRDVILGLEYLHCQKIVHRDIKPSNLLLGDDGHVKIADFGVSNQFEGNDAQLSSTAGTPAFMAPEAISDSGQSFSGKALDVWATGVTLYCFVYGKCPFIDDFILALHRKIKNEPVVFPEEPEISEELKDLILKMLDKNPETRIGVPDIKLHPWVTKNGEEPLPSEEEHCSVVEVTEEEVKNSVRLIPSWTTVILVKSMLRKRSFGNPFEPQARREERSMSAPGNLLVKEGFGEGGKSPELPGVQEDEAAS

PLK1 (human) = PLK1 (human) (UniProt P53350)
PRKX (human) = PRKX (human) (UniProt P51817)
PRKG2 (human) = PRKG2 (human) (UniProt Q13237)
ALK (human) = ALK (human) (UniProt Q9UM73)
MAPK13 (human) = MAPK13 (human) (UniProt O15264)
TBK1 (human) = TBK1 (human) (UniProt Q9UHD2)
CDK4 CCND3 (human) = CDK4 CCND3 (human) (UniProt P30281+P11802)
SRC (human) = SRC (human) (UniProt P12931)
SRC (human), sequence (P12931 whole entry, looked up): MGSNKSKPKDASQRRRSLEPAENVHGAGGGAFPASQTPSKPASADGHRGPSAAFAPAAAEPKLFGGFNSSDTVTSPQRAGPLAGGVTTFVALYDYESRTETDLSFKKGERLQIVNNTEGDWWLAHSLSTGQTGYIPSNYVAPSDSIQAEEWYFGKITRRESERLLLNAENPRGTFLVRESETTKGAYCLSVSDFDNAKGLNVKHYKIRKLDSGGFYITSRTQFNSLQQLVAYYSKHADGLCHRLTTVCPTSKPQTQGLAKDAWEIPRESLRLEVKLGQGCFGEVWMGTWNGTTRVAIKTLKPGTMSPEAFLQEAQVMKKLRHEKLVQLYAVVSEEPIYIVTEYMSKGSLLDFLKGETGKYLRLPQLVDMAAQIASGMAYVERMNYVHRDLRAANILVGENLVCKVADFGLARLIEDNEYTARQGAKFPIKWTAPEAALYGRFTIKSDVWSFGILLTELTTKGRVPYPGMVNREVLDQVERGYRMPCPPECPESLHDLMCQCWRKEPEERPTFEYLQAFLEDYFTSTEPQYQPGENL

EPHA1 (human) = EPHA1 (human) (UniProt P21709)
RPS6KB2 (human) = RPS6KB2 (human) (UniProt Q9UBS0)
MLTK (human) = MLTK (human) (UniProt Q9NYL2)
PRKCD (human) = PRKCD (human) (UniProt Q05655)
CDK6 CCND3 (human) = CDK6 CCND3 (human) (UniProt P30281+Q00534)
NTRK2 (human) = NTRK2 (human) (UniProt Q16620)
EPHA8 (human) = EPHA8 (human) (UniProt P29322)
CSNK1E (human) = CSNK1E (human) (UniProt P49674)
FGFR2 (human) = FGFR2 (human) (UniProt P21802)
FGFR1 (human) = FGFR1 (human) (UniProt P11362)
MAP3K5 (human) = MAP3K5 (human) (UniProt Q99683)
MAP3K5 (human), sequence (Q99683 whole entry, looked up): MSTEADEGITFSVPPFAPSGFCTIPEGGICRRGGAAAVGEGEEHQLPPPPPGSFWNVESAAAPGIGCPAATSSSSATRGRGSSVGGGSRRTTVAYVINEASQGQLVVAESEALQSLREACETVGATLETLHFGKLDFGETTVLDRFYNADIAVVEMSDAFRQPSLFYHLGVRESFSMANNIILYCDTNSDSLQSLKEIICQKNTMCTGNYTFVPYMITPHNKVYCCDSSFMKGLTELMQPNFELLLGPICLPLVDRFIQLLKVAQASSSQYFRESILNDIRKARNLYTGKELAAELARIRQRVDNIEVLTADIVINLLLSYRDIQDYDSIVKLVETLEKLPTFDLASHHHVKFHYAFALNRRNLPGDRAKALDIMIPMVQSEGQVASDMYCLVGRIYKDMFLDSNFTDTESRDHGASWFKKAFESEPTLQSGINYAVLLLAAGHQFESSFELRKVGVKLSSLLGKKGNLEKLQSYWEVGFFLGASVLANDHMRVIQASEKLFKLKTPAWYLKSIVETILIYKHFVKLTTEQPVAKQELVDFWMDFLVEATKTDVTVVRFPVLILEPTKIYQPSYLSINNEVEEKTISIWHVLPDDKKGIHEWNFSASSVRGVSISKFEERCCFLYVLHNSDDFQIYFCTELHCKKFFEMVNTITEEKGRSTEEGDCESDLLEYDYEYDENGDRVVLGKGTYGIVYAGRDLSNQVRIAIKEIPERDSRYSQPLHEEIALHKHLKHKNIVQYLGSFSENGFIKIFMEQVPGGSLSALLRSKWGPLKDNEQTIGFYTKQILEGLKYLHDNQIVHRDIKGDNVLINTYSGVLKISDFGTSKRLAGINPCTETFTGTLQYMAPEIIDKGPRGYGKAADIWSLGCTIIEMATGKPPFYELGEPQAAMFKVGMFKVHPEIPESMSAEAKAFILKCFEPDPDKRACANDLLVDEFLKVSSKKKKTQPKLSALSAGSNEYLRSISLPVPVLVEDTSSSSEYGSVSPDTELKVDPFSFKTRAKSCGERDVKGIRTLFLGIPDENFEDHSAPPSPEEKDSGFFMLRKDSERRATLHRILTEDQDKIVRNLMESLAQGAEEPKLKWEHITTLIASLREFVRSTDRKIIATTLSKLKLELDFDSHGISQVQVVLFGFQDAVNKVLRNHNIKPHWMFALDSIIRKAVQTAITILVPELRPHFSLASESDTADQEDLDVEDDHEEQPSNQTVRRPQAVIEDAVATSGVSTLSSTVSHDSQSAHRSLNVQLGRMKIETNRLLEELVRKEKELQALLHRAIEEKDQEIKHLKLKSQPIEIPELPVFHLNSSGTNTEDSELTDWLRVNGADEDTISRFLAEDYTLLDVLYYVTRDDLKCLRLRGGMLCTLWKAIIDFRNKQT

FGFR4 (human) = FGFR4 (human) (UniProt P22455)
RET (human) = RET (human) (UniProt P07949)
MAP3K3 (human) = MAP3K3 (human) (UniProt Q99759)
FES (human) = FES (human) (UniProt P07332)
CLK3 (human) = CLK3 (human) (UniProt P49761)
FGFR3 (human) = FGFR3 (human) (UniProt P22607)
FGFR3 (human), sequence (P22607 whole entry, looked up): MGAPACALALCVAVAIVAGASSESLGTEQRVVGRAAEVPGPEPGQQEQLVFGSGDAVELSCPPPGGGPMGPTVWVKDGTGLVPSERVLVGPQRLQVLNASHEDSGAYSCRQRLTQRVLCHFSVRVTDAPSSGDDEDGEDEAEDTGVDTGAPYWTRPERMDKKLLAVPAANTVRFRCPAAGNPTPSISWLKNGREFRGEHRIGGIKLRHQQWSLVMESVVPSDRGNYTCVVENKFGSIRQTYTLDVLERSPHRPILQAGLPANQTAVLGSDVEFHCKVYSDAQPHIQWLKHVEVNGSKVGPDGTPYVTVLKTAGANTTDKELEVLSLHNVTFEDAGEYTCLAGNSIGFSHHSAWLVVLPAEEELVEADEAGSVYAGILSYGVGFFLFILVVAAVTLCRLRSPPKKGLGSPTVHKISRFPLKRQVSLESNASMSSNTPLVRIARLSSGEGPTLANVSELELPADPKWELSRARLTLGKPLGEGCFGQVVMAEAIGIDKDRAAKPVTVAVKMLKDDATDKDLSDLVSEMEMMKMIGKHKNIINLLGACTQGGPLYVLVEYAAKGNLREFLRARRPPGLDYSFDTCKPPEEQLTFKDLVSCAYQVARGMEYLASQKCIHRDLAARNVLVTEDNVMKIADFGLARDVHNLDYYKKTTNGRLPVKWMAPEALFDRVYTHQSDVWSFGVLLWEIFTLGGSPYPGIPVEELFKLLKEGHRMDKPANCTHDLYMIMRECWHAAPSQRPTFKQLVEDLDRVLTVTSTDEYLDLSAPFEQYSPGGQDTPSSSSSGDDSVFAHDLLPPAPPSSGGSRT

PAK4 (human) = PAK4 (human) (UniProt O96013)
ULK1 (human) = ULK1 (human) (UniProt O75385)
MAP3K7 TAB1 (human) = MAP3K7 TAB1 (human) (UniProt O43318+Q15750)
BTK (human) = BTK (human) (UniProt Q06187)
CDK6 CCND1 (human) = CDK6 CCND1 (human) (UniProt Q00534+P24385)

CN(C)c1ccc(/C=C2\C(=O)Nc3ccccc32)cc1
residual activity (SYK (human)): 90.4% | residual activity (MAP3K8 (human)): 99.6% | residual activity (PIM3 (human)): 102% | residual activity (MAP4K2 (human)): 109% | residual activity (PRKCH (human)): 92.3% | residual activity (MAPK14 (human)): 92.4% | residual activity (RIPK2 (human)): 87.8% | residual activity (FLT3 (human)): 15.3% | residual activity (PRKCG (human)): 96.8% | residual activity (CDK2 CCNA2 (human)): 102% | residual activity (MAP3K2 (human)): 99.8% | residual activity (CAMKK1 (human)): 98.6% | residual activity (PLK1 (human)): 103% | residual activity (PRKX (human)): 104% | residual activity (PRKG2 (human)): 105% | residual activity (ALK (human)): 99.7% | residual activity (MAPK13 (human)): 97.1% | residual activity (TBK1 (human)): 98.4% | residual activity (CDK4 CCND3 (human)): 98.9% | residual activity (SRC (human)): 102% | residual activity (EPHA1 (human)): 93.7% | residual activity (RPS6KB2 (human)): 101% | residual activity (MLTK (human)): 96.5% | residual activity (PRKCD (human)): 95.6% | residual activity (CDK6 CCND3 (human)): 96.4% | residual activity (NTRK2 (human)): 54.8% | residual activity (EPHA8 (human)): 103% | residual activity (CSNK1E (human)): 57.2% | residual activity (FGFR2 (human)): 98.2% | residual activity (FGFR1 (human)): 92% | residual activity (MAP3K5 (human)): 99.4% | residual activity (FGFR4 (human)): 97.4% | residual activity (RET (human)): 78% | residual activity (MAP3K3 (human)): 104% | residual activity (FES (human)): 97.8% | residual activity (CLK3 (human)): 89.4% | residual activity (FGFR3 (human)): 96.3% | residual activity (PAK4 (human)): 101% | residual activity (ULK1 (human)): 91.9% | residual activity (MAP3K7 TAB1 (human)): 100% | residual activity (BTK (human)): 104% | residual activity (CDK6 CCND1 (human)): 101%

O=C1C(Cl)=C(N2C(=O)CCC2=O)C(=O)c2ccccc21
residual activity (SYK (human)): 95.9% | residual activity (MAP3K8 (human)): 91.8% | residual activity (PIM3 (human)): 101% | residual activity (MAP4K2 (human)): 89.6% | residual activity (PRKCH (human)): 93.1% | residual activity (MAPK14 (human)): 88.1% | residual activity (RIPK2 (human)): 84.8% | residual activity (FLT3 (human)): 108% | residual activity (PRKCG (human)): 97.5% | residual activity (CDK2 CCNA2 (human)): 109% | residual activity (MAP3K2 (human)): 108% | residual activity (CAMKK1 (human)): 112% | residual activity (PLK1 (human)): 97.6% | residual activity (PRKX (human)): 103% | residual activity (PRKG2 (human)): 114% | residual activity (ALK (human)): 88.5% | residual activity (MAPK13 (human)): 106% | residual activity (TBK1 (human)): 97.9% | residual activity (CDK4 CCND3 (human)): 107% | residual activity (SRC (human)): 95.1% | residual activity (EPHA1 (human)): 97.6% | residual activity (RPS6KB2 (human)): 102% | residual activity (MLTK (human)): 97.9% | residual activity (PRKCD (human)): 97.8% | residual activity (CDK6 CCND3 (human)): 99.2% | residual activity (NTRK2 (human)): 104% | residual activity (EPHA8 (human)): 107% | residual activity (CSNK1E (human)): 102% | residual activity (FGFR2 (human)): 102% | residual activity (FGFR1 (human)): 99.5% | residual activity (MAP3K5 (human)): 99.1% | residual activity (FGFR4 (human)): 105% | residual activity (RET (human)): 98% | residual activity (MAP3K3 (human)): 95.5% | residual activity (FES (human)): 97.5% | residual activity (CLK3 (human)): 114% | residual activity (FGFR3 (human)): 106% | residual activity (PAK4 (human)): 114% | residual activity (ULK1 (human)): 107% | residual activity (MAP3K7 TAB1 (human)): 99.5% | residual activity (BTK (human)): 103% | residual activity (CDK6 CCND1 (human)): 100%

Cc1cccc(-c2nc(C(C)(C)C)[nH]c2-c2ccc3c(c2)OCO3)n1
residual activity (SYK (human)): 87% | residual activity (MAP3K8 (human)): 94.5% | residual activity (PIM3 (human)): 106% | residual activity (MAP4K2 (human)): 102% | residual activity (PRKCH (human)): 104% | residual activity (MAPK14 (human)): 89.7% | residual activity (RIPK2 (human)): 79% | residual activity (FLT3 (human)): 96.2% | residual activity (PRKCG (human)): 107% | residual activity (CDK2 CCNA2 (human)): 117% | residual activity (MAP3K2 (human)): 99.9% | residual activity (CAMKK1 (human)): 103% | residual activity (PLK1 (human)): 105% | residual activity (PRKX (human)): 95% | residual activity (PRKG2 (human)): 95.9% | residual activity (ALK (human)): 103% | residual activity (MAPK13 (human)): 107% | residual activity (TBK1 (human)): 91.9% | residual activity (CDK4 CCND3 (human)): 102% | residual activity (SRC (human)): 96% | residual activity (EPHA1 (human)): 124% | residual activity (RPS6KB2 (human)): 102% | residual activity (MLTK (human)): 97.8% | residual activity (PRKCD (human)): 104% | residual activity (CDK6 CCND3 (human)): 98% | residual activity (NTRK2 (human)): 96.4% | residual activity (EPHA8 (human)): 89.9% | residual activity (CSNK1E (human)): 71.5% | residual activity (FGFR2 (human)): 105% | residual activity (FGFR1 (human)): 90.8% | residual activity (MAP3K5 (human)): 103% | residual activity (FGFR4 (human)): 73.8% | residual activity (RET (human)): 103% | residual activity (MAP3K3 (human)): 120% | residual activity (FES (human)): 108% | residual activity (CLK3 (human)): 104% | residual activity (FGFR3 (human)): 96.6% | residual activity (PAK4 (human)): 77.5% | residual activity (ULK1 (human)): 82.7% | residual activity (MAP3K7 TAB1 (human)): 96.3% | residual activity (BTK (human)): 118% | residual activity (CDK6 CCND1 (human)): 95.2%
